Legend:
Format in all cases: in vivo
[1] = system: Italian ryegrass (Lolium multiflorum); assay: Test C pre-/postemergence plant response; conditions: Postemergence, scale 0 to 100, 0 no effect, 100 complete control
Summary of the method: (§1)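 Pre/post spray; solvent blend non-phytotoxic, with surfactant; post stage 1–4 leaves (2–18 cm); controlled environment 15–25 d; visual score 0–100 relative to controls, 100 = complete control.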

[2] = system: spring wheat (Triticum aestivum); assay: Test C pre-/postemergence plant response; conditions: Postemergence, scale 0 to 100, 0 no effect, 100 complete control
Summary of the method: as §1

[3] = system: winter wheat (Triticum aestivum); assay: Test C pre-/postemergence plant response; conditions: Postemergence, scale 0 to 100, 0 no effect, 100 complete control
Summary of the method: as §1

[4] = system: annual bluegrass (Poa annua); assay: Test C pre-/postemergence plant response; conditions: Postemergence, scale 0 to 100, 0 no effect, 100 complete control
Summary of the method: as §1

[5] = system: windgrass (Apera spica-venti); assay: Test C pre-/postemergence plant response; conditions: Postemergence, scale 0 to 100, 0 no effect, 100 complete control
Summary of the method: as §1

[6] = system: canarygrass (Phalaris minor); assay: Test C pre-/postemergence plant response; conditions: Postemergence, scale 0 to 100, 0 no effect, 100 complete control
Summary of the method: as §1

[7] = system: downy bromegrass (Bromus tectorum); assay: Test C pre-/postemergence plant response; conditions: Postemergence, scale 0 to 100, 0 no effect, 100 complete control
Summary of the method: as §1

[8] = system: green foxtail (Setaria viridis); assay: Test C pre-/postemergence plant response; conditions: Postemergence, scale 0 to 100, 0 no effect, 100 complete control
Summary of the method: as §1

[9] = system: wild oat (Avena fatua); assay: Test C pre-/postemergence plant response; conditions: Postemergence, scale 0 to 100, 0 no effect, 100 complete control
Summary of the method: as §1

[10] = system: blackgrass (Alopecurus myosuroides); assay: Test C pre-/postemergence plant response; conditions: Postemergence, scale 0 to 100, 0 no effect, 100 complete control
Summary of the method: as §1

[11] = system: pigweed (Amaranthus retroflexus); assay: Test C pre-/postemergence plant response; conditions: Postemergence, scale 0 to 100, 0 no effect, 100 complete control
Summary of the method: as §1

[12] = system: winter barley (Hordeum vulgare); assay: Test C pre-/postemergence plant response; conditions: Postemergence, scale 0 to 100, 0 no effect, 100 complete control
Summary of the method: as §1

[13] = system: wild mustard (Sinapis arvensis); assay: Test C pre-/postemergence plant response; conditions: Postemergence, scale 0 to 100, 0 no effect, 100 complete control
Summary of the method: as §1

[14] = system: Italian ryegrass (Lolium multiflorum); assay: Test B pre-/postemergence plant response; conditions: for Ryegrass, Italian plant response rating: 8 g ai/ha
Summary of the method: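 Visual scoring from 0 (no effect) to 100 (complete control) against untreated controls was done 13 to 15 days after greenhouse treatment. Chemicals were formulated in a surfactant-containing non-phytotoxic solvent and applied to soil preemergence or to 1- to 4-leaf (2-18 cm) plants postemergence.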

## CCc1cc(-c2ccc(Cl)c(Cl)c2)nn1-c1c(O)cnn(C)c1=O [Compound 20]
[1]; 8 g ai/ha
  Plant response rating, Ryegrass, Italian: 65
[1]; 16 g ai/ha
  Plant response rating, Ryegrass, Italian: 80
[1]; 31 g ai/ha
  Plant response rating, Ryegrass, Italian: 95
[1]; 62 g ai/ha
  Plant response rating, Ryegrass, Italian: 98
[2]; 8 g ai/ha
  Plant response rating, Wheat, Spring: 0
[2]; 16 g ai/ha
  Plant response rating, Wheat, Spring: 25
[2]; 31 g ai/ha
  Plant response rating, Wheat, Spring: 25
[2]; 62 g ai/ha
  Plant response rating, Wheat, Spring: 60
[3]; 8 g ai/ha
  Plant response rating, Wheat, Winter: 0
[3]; 16 g ai/ha
  Plant response rating, Wheat, Winter: 20
[3]; 31 g ai/ha
  Plant response rating, Wheat, Winter: 30
[3]; 62 g ai/ha
  Plant response rating, Wheat, Winter: 60
[4]; 8 g ai/ha
  Plant response rating, Bluegrass: 0
[4]; 16 g ai/ha
  Plant response rating, Bluegrass: 0
[4]; 31 g ai/ha
  Plant response rating, Bluegrass: 0
[4]; 62 g ai/ha
  Plant response rating, Bluegrass: 0
[5]; 8 g ai/ha
  Plant response rating, Windgrass: 0
[5]; 16 g ai/ha
  Plant response rating, Windgrass: 0
[5]; 31 g ai/ha
  Plant response rating, Windgrass: 50
[5]; 62 g ai/ha
  Plant response rating, Windgrass: 75
[6]; 8 g ai/ha
  Plant response rating, Canarygrass: 10
[6]; 16 g ai/ha
  Plant response rating, Canarygrass: 35
[6]; 31 g ai/ha
  Plant response rating, Canarygrass: 75
[6]; 62 g ai/ha
  Plant response rating, Canarygrass: 95
[7]; 8 g ai/ha
  Plant response rating, Bromegrass, Downy: 0
[7]; 16 g ai/ha
  Plant response rating, Bromegrass, Downy: 0
[7]; 31 g ai/ha
  Plant response rating, Bromegrass, Downy: 0
[7]; 62 g ai/ha
  Plant response rating, Bromegrass, Downy: 10
[8]; 8 g ai/ha
  Plant response rating, Foxtail, Green: 0
[8]; 16 g ai/ha
  Plant response rating, Foxtail, Green: 70
[8]; 31 g ai/ha
  Plant response rating, Foxtail, Green: 80
[8]; 62 g ai/ha
  Plant response rating, Foxtail, Green: 98
[9]; 8 g ai/ha
  Plant response rating, Oat, Wild: 10
[9]; 16 g ai/ha
  Plant response rating, Oat, Wild: 98
[9]; 31 g ai/ha
  Plant response rating, Oat, Wild: 100
[9]; 62 g ai/ha
  Plant response rating, Oat, Wild: 100
[10]; 8 g ai/ha
  Plant response rating, Blackgrass: 0
[10]; 16 g ai/ha
  Plant response rating, Blackgrass: 35
[10]; 31 g ai/ha
  Plant response rating, Blackgrass: 60
[10]; 62 g ai/ha
  Plant response rating, Blackgrass: 75
[11]; 8 g ai/ha
  Plant response rating, Pigweed: 0
[11]; 16 g ai/ha
  Plant response rating, Pigweed: 0
[11]; 31 g ai/ha
  Plant response rating, Pigweed: 0
[11]; 62 g ai/ha
  Plant response rating, Pigweed: 0
[12]; 8 g ai/ha
  Plant response rating, Barley, Winter: 0
[12]; 16 g ai/ha
  Plant response rating, Barley, Winter: 0
[12]; 31 g ai/ha
  Plant response rating, Barley, Winter: 20
[12]; 62 g ai/ha
  Plant response rating, Barley, Winter: 20
[13]; 8 g ai/ha
  Plant response rating, Mustard, Wild: 0
[13]; 16 g ai/ha
  Plant response rating, Mustard, Wild: 0
[13]; 31 g ai/ha
  Plant response rating, Mustard, Wild: 0
[13]; 62 g ai/ha
  Plant response rating, Mustard, Wild: 0
[14]; postemergence, 0-100 scale
  Ryegrass, Italian plant response rating: 40
[14]; Postemergence, 16 g ai/ha, scale 0 to 100
  Plant response rating, Ryegrass, Italian: 55
[14]; Postemergence, 31 g ai/ha, scale 0 to 100, 0 no effect, 100 complete control
  Plant response rating, Ryegrass, Italian: 90
[14]; Postemergence, 62 g ai/ha, scale 0 to 100
  Plant response rating, Ryegrass, Italian: 90
[14]; Preemergence, 16 g ai/ha, scale 0 to 100 (0 no effect, 100 complete control)
  Plant response rating, Ryegrass, Italian: 35
[14]; Preemergence, 31 g ai/ha, 0 to 100 scale, 0 no effect, 100 complete control
  Plant response rating, Ryegrass, Italian: 40
[14]; Preemergence, 62 g ai/ha, scale 0 to 100
  Plant response rating, Ryegrass, Italian: 90
[14]; Preemergence, scale 0 to 100
  Ryegrass, Italian plant response rating: 30

Source: patent US20100267561A1, “HERBICIDAL PYRIDAZINONE DERIVATIVES” (priority 2007, published 2010)
